Assay results as given in ChEMBL document CHEMBL5143510, “Structure modification and biological evaluation of indole-chalcone derivatives as anti-tumor agents through dual targeting tubulin and TrxR” (Eur J Med Chem, 2022).
pIC50: −log10 of the molar value. Structures can show the parent of a compound that is named as a salt.

Tests used:
MCF7 = test: Antiproliferative activity against human MCF7 cells assessed as reduction in cell viability incubated for 48 hrs by MTT assay; assay type: functional, cell-based; conditions: MCF7, 48 h
A2780 = test: Antiproliferative activity against human A2780 cells assessed as reduction in cell viability incubated for 48 hrs by MTT assay; assay type: functional, cell-based; conditions: A2780, 48 h
HeLa = test: Antiproliferative activity against human HeLa cells assessed as reduction in cell viability incubated for 48 hrs by MTT assay; assay type: functional, cell-based
MHCC97H [1] = test: Antiproliferative activity against human MHCC97H cells assessed as reduction in cell viability incubated for 48 hrs by MTT assay; assay type: functional, cell-based
HCT-8 = test: Antiproliferative activity against human HCT-8 cells assessed as reduction in cell viability incubated for 48 hrs by MTT assay; assay type: functional, cell-based; conditions: HCT-8, 48 h
A549 = test: Antiproliferative activity against human A549 cells assessed as reduction in cell viability incubated for 48 hrs by MTT assay; assay type: functional, cell-based; conditions: A549, 48 h
[2] = Antiproliferative activity against vincristine resistant human HCT-8/VCR cells assessed as reduction in cell viability incubated for 48 hrs by MTT assay; assay type: functional, cell-based
[3] = Resistance index, ratio of IC50 for antiproliferative activity against vincristine resistant human HCT-8/VCR cells to IC50 for antiproliferative activity against human HCT-8 cells; assay type: functional
[4] = Inhibition of TrxR (unknown origin) using DTNB as substrate incubated for 5 mins in presence of NADPH followed by substrate addition by microplate reader analysis; parameters: species or system Homo sapiens
[5] = Inhibition of TrxR in human MHCC97H cells using DTNB as substrate preincubated for 24 hrs in presence of NADPH followed by substrate addition by microplate reader analysis; assay type: cell-based
NCI/ADR-RES = test: Antiproliferative activity against adriamycin resistant human MCF7/ADR cells assessed as reduction in cell viability incubated for 48 hrs by MTT assay; assay type: functional, cell-based
MHCC97H [6] = test: Antitumor activity against human MHCC97H cells xenografted in BALB/c mouse assessed as tumor weight at 30 mg/kg, ip administered every other day for 30 days; assay type: functional; conditions: time 30 day
MHCC97H [7] = test: Antitumor activity against human MHCC97H cells xenografted in BALB/c mouse assessed as tumor growth inhibition at 30 mg/kg, ip administered every other day for 30 days; assay type: functional; conditions: 720 h, time 30 day, read-out: TGI
MHCC97H [8] = test: Antitumor activity against human MHCC97H cells xenografted in BALB/c mouse assessed as tumor volume at 30 mg/kg, ip administered every other day for 30 days; assay type: functional; conditions: time 30 day
[9] = Resistance index, ratio of IC50 for antiproliferative activity against paclitaxel resistant human A2780/PTX cells to IC50 for antiproliferative activity against human A2780 cells; assay type: functional
[10] = Antiproliferative activity against paclitaxel resistant human A2780/PTX cells assessed as reduction in cell viability incubated for 48 hrs by MTT assay; assay type: functional, cell-based

Row | pIC50 (MCF7) | pIC50 (A2780) | pIC50 (HeLa) | pIC50 (HCT-8) | pIC50 (A549) | SMILES | pIC50 (MHCC97H [1]) | further results
1 | 6.30 | 6.81 | 6.45 | 6.34 | 6.97 | COc1ccc2c(/C=C/C(=O)c3cc(N)c(OC)c(OC)c3)cn(C)c2c1 | 6.70 | –
2 | – | – | – | 6.66 | – | CC[C@]1(O)C[C@H]2CN(CCc3c([nH]c4ccccc34)[C@@](C(=O)OC)(c3cc4c(cc3OC)N(C=O)[C@H]3[C@@](O)(C(=O)OC)[C@H](OC(C)=O)[C@]5(CC)C=CCN6CC[C@]43[C@@H]65)C2)C1 [VINCRISTINE] | – | pIC50 [2]: 4.99; Ratio IC50 [3]: 47
3 | 5.82 | 6.02 | 6.02 | 6.12 | 5.99 | COc1ccc2c(/C=C/C(=O)c3cc(OC)c(OC)c([N+](=O)[O-])c3)cn(C)c2c1 | 6.25 | –
4 | 6.20 | 6.36 | 6.18 | 6.22 | 6.30 | COc1cc(C(=O)/C=C/c2cn(C)c3ccccc23)cc(N)c1OC | 6.54 | –
5 | 7.08 | 7.19 | 6.98 | 7.11 | 7.17 | COc1ccc2c(/C=C/C(=O)c3cc(OC)c(OC)c([Se]C)c3)c[nH]c2c1 | 7.24 | –
6 | 6.73 | 6.77 | 6.80 | 6.78 | 6.82 | COc1cc(C(=O)/C=C/c2c[nH]c3ccccc23)cc(SC)c1OC | 6.88 | –
7 | 5.75 | 5.72 | 5.71 | 5.78 | 5.97 | COc1cc(C(=O)/C=C/c2cn(C)c3ccccc23)cc([N+](=O)[O-])c1OC | 6.07 | –
8 | – | – | – | – | – | COc1cc(/C=C/C(=O)CC(=O)/C=C/c2ccc(O)c(OC)c2)ccc1O [CURCUMIN] | – | pIC50 [4]: 4.54; pIC50 [5]: 4.54
9 | 6.23 | 6.45 | 6.28 | 6.24 | 6.47 | COc1cc(C(=O)/C=C/c2c[nH]c3ccccc23)cc(N)c1OC | 6.58 | –
10 | 7.11 | 7.46 | 7.20 | 7.32 | 7.74 | COc1cc(C(=O)/C(C)=C/c2cn(C)c3ccccc23)cc([Se]C)c1OC | 7.59 | –
11 | – | – | – | – | – | COc1cccc2c1C(=O)c1c(O)c3c(c(O)c1C2=O)C[C@@](O)(C(=O)CO)C[C@@H]3O[C@H]1C[C@H](N)[C@H](O)[C@H](C)O1 [DOXORUBICIN HYDROCHLORIDE] | – | pIC50 (NCI/ADR-RES): 3.63
12 | 6.18 | 6.13 | 6.07 | 6.01 | 6.48 | COc1ccc2c(/C=C/C(=O)c3cc(OC)c(OC)c([N+](=O)[O-])c3)c[nH]c2c1 | 6.54 | –
13 | 5.89 | 5.89 | 5.87 | 5.86 | 5.82 | COc1cc(C(=O)/C=C/c2c[nH]c3ccccc23)cc([N+](=O)[O-])c1OC | 6.08 | –
14 | 6.99 | 6.71 | 6.98 | 6.68 | 6.73 | COc1cc(C(=O)/C=C/c2cn(C)c3ccccc23)cc(SC)c1OC | 6.82 | –
15 | 7.00 | 6.86 | 6.88 | 6.86 | 6.94 | COc1ccc2c(/C=C/C(=O)c3cc(OC)c(OC)c(SC)c3)c[nH]c2c1 | 6.95 | –
16 | 7.23 | 7.60 | 7.47 | 7.49 | 7.92 | COc1cc(C(=O)/C(C)=C/c2c[nH]c3ccccc23)cc([Se]C)c1OC | 7.74 | –
17 | 6.78 | 6.84 | 6.78 | 6.80 | 6.81 | COc1ccc2c(/C=C/C(=O)c3cc(OC)c(OC)c(SC)c3)cn(C)c2c1 | 6.91 | –
18 | – | – | – | – | – | COc1ccc(/C=C\c2cc(OC)c(OC)c(OC)c2)cc1OP(=O)(O)O [FOSBRETABULIN] | – | Activity (MHCC97H [6]): 0.888 g; inhibition in vivo at 30 mg/kg (MHCC97H [7]): 39.2%; Activity (MHCC97H [8]): 1031.1 mm3
19 | 6.60 | 6.69 | 6.81 | 6.43 | 6.71 | COc1ccc2c(/C=C/C(=O)c3cc(N)c(OC)c(OC)c3)c[nH]c2c1 | 6.73 | –
20 | – | – | – | – | – | O=c1c2ccccc2[se]n1CCn1[se]c2ccccc2c1=O | – | Activity (MHCC97H [6]): 1.119 g; inhibition in vivo at 30 mg/kg (MHCC97H [7]): 51.7%; Activity (MHCC97H [8]): 832.6 mm3
21 | 7.36 | 7.59 | 7.49 | 7.60 | 7.82 | COc1ccc2c(/C=C(\C)C(=O)c3cc(OC)c(OC)c([Se]C)c3)cn(C)c2c1 | 7.82 | –
22 | – | 7.68 | – | – | – | CC(=O)O[C@H]1C(=O)[C@@]2(C)[C@H]([C@H](OC(=O)c3ccccc3)[C@]3(O)C[C@H](OC(=O)[C@H](O)[C@@H](NC(=O)c4ccccc4)c4ccccc4)C(C)=C1C3(C)C)[C@]1(OC(C)=O)CO[C@@H]1C[C@@H]2O [PACLITAXEL] | – | Ratio IC50 [9]: 16.4; pIC50 [10]: 6.46

Row | SMILES | pIC50 (MCF7) | pIC50 (A2780) | pIC50 (HeLa) | pIC50 (HCT-8) | pIC50 (A549) | pIC50 (MHCC97H [1]) | further results
23 | COc1ccc(/C=C\c2cc(OC)c(OC)c(OC)c2)cc1O [COMBRETASTATIN A4] | 7.54 | – | 7.80 | 7.64 | – | 8.10 | –
